One data set has as its system Smn protein. Nature of the data set: Smn protein assay in cultured cells (SMN HTRF). The format is cell-based, human. The conditions noted are these: SMA patient fibroblast cells (GM03813), 48 hours; for EC1.5x for Smn protein expression: 7-point concentration curve, concentration producing 1.5 times Smn protein vs DMSO vehicle; for maximum fold (Fold) increase of Smn protein: 7-point concentration data, relative to vehicle control. In short, it runs like this: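 Smn protein measured by HTRF (anti-SMN d2/kryptate) in lysates of SMA patient fibroblasts after 48 h compound treatment, 7-point 3.16-fold dilutions, triplicates. The 665/620 nm ratio is blank-corrected to ΔF, then divided by the vehicle ΔF to give fold increase.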

The subject of data set [1] is full length SMN2 minigene mRNA containing SMN2 exon 7. In words: SMN2 minigene mRNA splicing RT-qPCR assay in cultured cells. The format is cell-based, human. The conditions noted are these: Homo sapiens, HEK293-H; HEK293H cells stably transfected with SMN2-A minigene, 24 hours, 7-point concentration curve; concentration giving 1.5-fold full length SMN2 mRNA vs vehicle; read-out: EC1.5x for production of full length SMN2 mRNA. In short, it runs like this: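 Read-out is minigene FL mRNA (exon 7 included) relative to vehicle, from efficiency-corrected ΔΔCt with GAPDH normalisation. Primers and probe span exon 7, exon 8 and luciferase, so endogenous SMN is not detected. Stable SMN2-A minigene HEK293H cells, 24 h compound exposure at 37 °C, 7-point curve in duplicate.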
A general note: Quantitative PCR measures a nucleic acid by following its amplification.

The structures appear in SMILES notation.

A word on the melting point: it is the temperature, or range, at which the solid turns liquid. With `Cc1cn2cc(-c3cc4ccc(N5CCN[C@H](C)C5)cc4c(=O)o3)nc2c(C)n1` [Cpd 71, 3-(6,8-dimethylimidazo[1,2-a]pyrazin-2-yl)-7-[(3R)-3-methylpiperazin-1-yl]-1H-isochromen-1-one], the melting point was 331 to 333 °C. In the data set on Smn protein, the “EC1.5x for Smn protein expression” value was “**** (an EC1.5×≦0.3 nM is indicated by four stars (****))” and the “maximum fold (Fold) increase of Smn protein” value (“maximum fold (Fold) increase” below) is on record as “***** (a fold increase >1.65 is indicated by five stars (*****))”. In data set [1], the EC (1.5-fold) is at most 0.1 µM.

On to `Cc1nc(Cl)cn2cc(-c3cc4ccc(N5CCN(C(C)C)CC5)cc4c(=O)o3)nc12` [Cpd 101, 3-(6-chloro-8-methylimidazo[1,2-a]pyrazin-2-yl)-7-[4-(propan-2-yl)piperazin-1-yl]-1H-isochromen-1-one], for which the melting point lay in the range of 286 to 291 °C. Also, in the data set on Smn protein, the “EC1.5x for Smn protein expression” value was “*** (an EC1.5× between >0.3 nM and ≦1 nM is indicated by three stars (***))”; the “maximum fold (Fold) increase” value is given as “***** (a fold increase >1.65 is indicated by five stars (*****))”. Also, the EC (1.5-fold) in data set [1] lay in the range of 0.1 to 0.3 µM.

For the molecule `COc1ccccc1-c1cc2ccc(N3C[C@@H](C)N[C@@H](C)C3)cc2c(=O)o1` [Cpd 23, 7-[(3R,5S)-3,5-dimethylpiperazin-1-yl]-3-(2-methoxyphenyl)-1H-isochromen-1-one], the melting point was in the range of 154 to 157 °C. For the same molecule, the “maximum fold (Fold) increase” value with Smn protein is “* (A maximum fold increase of ≦1.2 is indicated by one star (*))”. Moreover, the EC (1.5-fold) in data set [1] is 1 to 3 µM.

Take `Cc1nc(Cl)cn2cc(-c3cc4ccc(N5CCN(C)[C@H](C)C5)cc4c(=O)o3)nc12` [Cpd 111, 3-(6-chloro-8-methylimidazo[1,2-a]pyrazin-2-yl)-7-[(3R)-3,4-dimethylpiperazin-1-yl]-1H-isochromen-1-one]: the melting point was 271 to 276 °C. In the data set with Smn protein, the “EC1.5x for Smn protein expression” value was “*** (an EC1.5× between >0.3 nM and ≦1 nM is indicated by three stars (***))”; the “maximum fold (Fold) increase” value is given as “***** (a fold increase >1.65 is indicated by five stars (*****))”. Also, in data set [1], the EC (1.5-fold) lay in the range of 0.1 to 0.3 µM.

`CCN1CCN(c2ccc3cc(-c4cn5cc(C)ncc5n4)oc(=O)c3c2)C[C@@H]1C` [Cpd 120, 7-[(3S)-4-ethyl-3-methylpiperazin-1-yl]-3-(6-methylimidazo[1,2-a]pyrazin-2-yl)-1H-isochromen-1-one]: the melting point lay within 255 to 260 °C. In addition, in the data set with Smn protein, the “EC1.5x for Smn protein expression” value is “**** (an EC1.5×≦0.3 nM is indicated by four stars (****))” and the “maximum fold (Fold) increase” value is “***** (a fold increase >1.65 is indicated by five stars (*****))”. Besides, the EC (1.5-fold) in data set [1] was at most 0.1 µM.

`COc1ccc(-c2cc3ccc(N4CCN(C)[C@@H](C)C4)cc3c(=O)o2)cc1OC` [Cpd 67, 3-(3,4-dimethoxyphenyl)-7-[(3S)-3,4-dimethylpiperazin-1-yl]-1H-isochromen-1-one]: the melting point was 138 to 140 °C. Also, in the data set with Smn protein, the “EC1.5x for Smn protein expression” value is “** (an EC1.5× between >1 μM, and ≦3 nM is indicated by two stars (**))”; the “maximum fold (Fold) increase” value is “*** (a fold increase between >1.35 and ≦1.5 is indicated by three stars (***))”. Besides, the EC (1.5-fold) in data set [1] was 0.3 to 1 µM.

Turning to `O=c1oc(-c2ccc3c(c2)OC(F)(F)O3)cc2ccc(N3CCNCC3)cc12` [Cpd 6, 3-(2,2-difluoro-1,3-benzodioxol-5-yl)-7-(piperazin-1-yl)-1H-isochromen-1-one], the melting point was in the range of 220 to 222 °C. Also, in the data set with Smn protein, the “maximum fold (Fold) increase” value is reported as “* (A maximum fold increase of ≦1.2 is indicated by one star (*))”. Besides, the EC (1.5-fold) in data set [1] was in the range of 1 to 3 µM.

Molecule `CCc1nc(C)cn2cc(-c3cc4ccc(C5=CCNCC5)cc4c(=O)o3)nc12` [Cpd 159, 3-(8-ethyl-6-methylimidazo[1,2-a]pyrazin-2-yl)-7-(1,2,3,6-tetrahydropyridin-4-yl)-1H-isochromen-1-one] came in with a melting point of 239 to 241 °C. For the same molecule, in the data set with Smn protein, the “EC1.5x for Smn protein expression” value is reported as “**** (an EC1.5×≦0.3 nM is indicated by four stars (****))” and the “maximum fold (Fold) increase” value was “***** (a fold increase >1.65 is indicated by five stars (*****))”. Besides, the EC (1.5-fold) in data set [1] was at most 0.1 µM.

`Cc1cn2cc(-c3cc4ccc(N5CCN(CC(C)C)CC5)cc4c(=O)o3)nc2c(C)n1` [Cpd 86, 3-(6,8-dimethylimidazo[1,2-a]pyrazin-2-yl)-7-[4-(2-methylpropyl)piperazin-1-yl]-1H-isochromen-1-one] displayed a melting point of 243 to 245 °C. In addition, the “maximum fold (Fold) increase” value with Smn protein was “*** (a fold increase between >1.35 and ≦1.5 is indicated by three stars (***))”. Moreover, the EC (1.5-fold) in data set [1] was at most 0.1 µM.

Regarding `Cn1cc2cc(-c3cc4ccc(N5CCNCC5)cc4c(=O)o3)ccc2n1` [Cpd 156, 3-(2-methyl-2H-indazol-5-yl)-7-(piperazin-1-yl)-1H-isochromen-1-one], the melting point is 268 to 270 °C. Moreover, in the data set with Smn protein, the “EC1.5x for Smn protein expression” value is listed as “**** (an EC1.5×≦0.3 nM is indicated by four stars (****))” and the “maximum fold (Fold) increase” value is reported as “***** (a fold increase >1.65 is indicated by five stars (*****))”. Further, in data set [1], the EC (1.5-fold) is at most 0.1 µM.

`COCCN1CCN(c2ccc3cc(-c4cn5cc(C)nc(C)c5n4)oc(=O)c3c2)C[C@H]1C` [Cpd 145, 3-(6,8-dimethylimidazo[1,2-a]pyrazin-2-yl)-7-[(3R)-4-(2-methoxyethyl)-3-methylpiperazin-1-yl]-1H-isochromen-1-one] showed a melting point of 205 to 210 °C. In the data set on Smn protein, the “EC1.5x for Smn protein expression” value is reported as “**** (an EC1.5×≦0.3 nM is indicated by four stars (****))” and the “maximum fold (Fold) increase” value is on record as “***** (a fold increase >1.65 is indicated by five stars (*****))”. Moreover, in data set [1], the EC (1.5-fold) was at most 0.1 µM.

With `C[C@H]1CN(c2ccc3cc(-c4ccc(O)c(O)c4)oc(=O)c3c2)CCN1` [Cpd 41, 3-(3,4-dihydroxyphenyl)-7-[(3S)-3-methylpiperazin-1-yl]-1H-isochromen-1-one], the melting point lay in the range of 220 to 222 °C. For the same molecule, the “maximum fold (Fold) increase” value with Smn protein was “*** (a fold increase between >1.35 and ≦1.5 is indicated by three stars (***))”. Also, in data set [1], the EC (1.5-fold) lay within 0.3 to 1 µM.

As for `Cc1cn2cc(-c3cc4ccc(C5CCN(C(C)C)CC5)cc4c(=O)o3)nc2c(C)n1` [Cpd 117, 3-(6,8-dimethylimidazo[1,2-a]pyrazin-2-yl)-7-[1-(propan-2-yl)piperidin-4-yl]-1H-isochromen-1-one], the melting point lay within 227 to 229 °C. In addition, in the data set with Smn protein, the “EC1.5x for Smn protein expression” value was “*** (an EC1.5× between >0.3 nM and ≦1 nM is indicated by three stars (***))”; the “maximum fold (Fold) increase” value is given as “***** (a fold increase >1.65 is indicated by five stars (*****))”. The EC (1.5-fold) in data set [1] was at most 0.1 µM.

Turning to `Cc1nc(Cl)cn2cc(-c3cc4ccc(C5=CCNCC5)cc4c(=O)o3)nc12` [Cpd 113, 3-(6-chloro-8-methylimidazo[1,2-a]pyrazin-2-yl)-7-(1,2,3,6-tetrahydropyridin-4-yl)-1H-isochromen-1-one], the melting point is 269 to 273 °C. In the data set with Smn protein, the “EC1.5x for Smn protein expression” value is “** (an EC1.5× between >1 μM, and ≦3 nM is indicated by two stars (**))”; the “maximum fold (Fold) increase” value is “**** (a fold increase between >1.5 and ≦1.65 is indicated by four stars (****))”. The EC (1.5-fold) in data set [1] was at most 0.1 µM.

Consider `CCCN1CCN(c2ccc3cc(-c4cn5cc(C)nc(C)c5n4)oc(=O)c3c2)C[C@H]1C` [Cpd 141, 3-(6,8-dimethylimidazo[1,2-a]pyrazin-2-yl)-7-[(3R)-3-methyl-4-propylpiperazin-1-yl]-1H-isochromen-1-one], for which the melting point lay in the range of 251 to 256 °C. In the data set on Smn protein, the “EC1.5x for Smn protein expression” value is reported as “**** (an EC1.5×≦0.3 nM is indicated by four stars (****))” and the “maximum fold (Fold) increase” value is given as “***** (a fold increase >1.65 is indicated by five stars (*****))”. Besides, the EC (1.5-fold) in data set [1] is at most 0.1 µM.

In the case of `CCN1CCC(c2ccc3cc(-c4cn5cc(C)nc(C)c5n4)oc(=O)c3c2)CC1` [Cpd 115, 3-(6,8-dimethylimidazo[1,2-a]pyrazin-2-yl)-7-(1-ethylpiperidin-4-yl)-1H-isochromen-1-one], the melting point fell in the range of 215 to 217 °C. Also, in the data set on Smn protein, the “EC1.5x for Smn protein expression” value was “**** (an EC1.5×≦0.3 nM is indicated by four stars (****))” and the “maximum fold (Fold) increase” value is reported as “***** (a fold increase >1.65 is indicated by five stars (*****))”. Also, in data set [1], the EC (1.5-fold) was at most 0.1 µM.

Molecule `Cc1cn2cc(-c3cc4ccc(N5CCN(C(C)C)[C@@H](C)C5)cc4c(=O)o3)nc2c(C)n1` [Cpd 138, 3-(6,8-dimethylimidazo[1,2-a]pyrazin-2-yl)-7-[(3S)-3-methyl-4-(propan-2-yl)piperazin-1-yl]-1H-isochromen-1-one] returned a melting point of 266 to 271 °C. In the data set with Smn protein, the “EC1.5x for Smn protein expression” value was “*** (an EC1.5× between >0.3 nM and ≦1 nM is indicated by three stars (***))”; the “maximum fold (Fold) increase” value was “**** (a fold increase between >1.5 and ≦1.65 is indicated by four stars (****))”. For the same molecule, the EC (1.5-fold) in data set [1] fell in the range of 0.1 to 0.3 µM.

In the case of `CCN1CCN(c2ccc3cc(-c4cn5cc(Cl)nc(C)c5n4)oc(=O)c3c2)CC1` [Cpd 102, 3-(6-chloro-8-methylimidazo[1,2-a]pyrazin-2-yl)-7-(4-ethylpiperazin-1-yl)-1H-isochromen-1-one], the melting point lay within 229 to 234 °C. Also, the “maximum fold (Fold) increase” value in the data set with Smn protein is “*** (a fold increase between >1.35 and ≦1.5 is indicated by three stars (***))”. The EC (1.5-fold) in data set [1] lay within 0.1 to 0.3 µM.

These data come from patent publication US9399649B2, “Compounds for treating spinal muscular atrophy” (PTC Therapeutics Inc., priority 2012, dated 2016).
